These results are taken from patent US8158021B2, “Polymerizable liquid crystal compound, polymerizable liquid crystal composition, liquid crystalline polymer, and optical anisotropic article” (Zeon Corporation, priority 2007, dated 2012).

The nature of data set [1]: Measurement of phase transition temperature (liquid crystallinity temperature range). Type of data set: physicochemical. As for the experimental part:
The substrates were heated from 30° C. to 250° C. on a hot plate, and then cooled to 30° C. A change in structure during a change in temperature was observed using a polarization optical microscope (“ECLIPSE LV100POL” manufactured by Nikon Corporation) to measure the phase transition temperature.
In Table 1, “C” indicates “Crystal”, “N” indicates “Nematic”, and “I” indicates “Isotropic”.

Data set [2] is described as follows: Measurement of optical anisotropy (value Δn) of cured polymer film. Type of data set: physicochemical. To be noted: cured polymer film 1.5 μm; retardation at 545.3 nm; Δn=Re/d. As for the experimental part: 2.7 parts of a photoinitiator (“Irgacure 907” manufactured by Ciba Specialty Chemicals Co., Ltd.) was then homogenously dissolved in the solution. The resulting solution was applied to a glass substrate provided with a rubbed polyimide alignment film using a bar coater (“SA-203” manufactured by Tester Sangyo Co., Ltd., Rod No. 4, shaft diameter: 12.7 mm). After drying the resulting film on a hot plate at 100° C. for two minutes, ultraviolet rays (700 mJ/cm^2) were applied to the film from a mercury lamp to obtain a cured polymer film having a thickness of 1.5 μm.
The retardation (Re) of the cured film at a wavelength of 545.3 nm was measured using an ellipsometer (“XLS-100” manufactured by J. A. Woollam). The thickness (d) of the liquid crystal layer was also measured, and the value Δn was calculated by “Δn=Re/d”.

A short description of data set [3]: Formation of cholesteric phase in cured liquid crystalline polymer film. To be noted: composition with polymerizable chiral compound; cured film 4 μm; transmission spectrum. Type of data set: physicochemical. Also noted: key: A case where a cholesteric phase was formed is indicated by “Formed”; a case where a cholesteric phase was not formed is indicated by “Not formed”. The method, then:
The polymerizable liquid crystal composition solution was applied to a glass substrate provided with a rubbed polyimide alignment film using a bar coater (“SA-203” manufactured by Tester Sangyo Co., Ltd., Rod No. 8, shaft diameter: 12.7 mm). After drying the resulting film on a hot plate at 100° C. for three minutes, ultraviolet rays (1000 mJ/cm^2) were applied to the film from a mercury lamp to obtain a cured liquid crystalline polymer film having a thickness of 4 μm.
The transmission spectrum of the cured film was measured using a spectrophotometer (“MCPD-3000” manufactured by Otsuka Electronics Co., Ltd.). A selective reflection region (i.e., a region in which the transmittance was about 50%) was observed when a cholesteric phase was formed. The bandwidth was about 50 to 100 nm. A case where a cholesteric phase was formed is indicated by “Formed”, and a case where a cholesteric phase was not formed is indicated by “Not formed”.

Data set [4] in a line: Mutual solubility when forming the cured film. To be noted: at 23° C., naked eye observation of turbidity.
Procedure: When forming the cured film of the compound, the mutual solubility of the compound at 23° C. was evaluated by naked eye observation. A case where turbidity was not observed is indicated by “Good”, and a case where turbidity was observed is indicated by “Bad”.
Data set [5] in a line: Solubility in cyclopentanone. As to conditions: in cyclopentanone at 60° C., compound concentration 40 wt %.
Procedure: The solubility of the compound at 60° C. was evaluated when preparing the solution having a compound concentration of 40 wt %.
The mark [6] stands for this setting: heated from 30° C. to 250° C., then cooled to 30° C., polarization optical microscope.

With `C=CC(=O)OCCCCCCOc1ccc(C(=O)Oc2ccc(C=NN=Cc3ccc(OC(=O)c4ccc(OCCCCCCOC(=O)C=C)cc4)c(C(=O)OCCOCCC)c3)cc2)cc1` [Polymerizable liquid crystal compound 3], in data set [1] (setting [6]), the “Liquid crystallinity temperature range” value is 190 °C or more. The same compound displayed a Δn in data set [2] of 0.176. For the same compound, in data set [3], the Cholesteric phase result is given as “Formed”.
On the same counts, the results for `C=CC(=O)OCCCCCCOc1ccc(C(=O)Oc2ccc(C=NN=Cc3ccc(OC(=O)c4ccc(OCCCCCCOC(=O)C=C)cc4)c(OCC)c3)cc2)cc1` [Polymerizable liquid crystal compound 4] are 175 °C or more, 0.199 and “Formed”.
On to `C=CC(=O)OCCCCCCOc1ccc(C(=O)Oc2ccc(C=NN=Cc3cc(OC)c(OC(=O)c4ccc(OCCCCCCOC(=O)C=C)cc4)c(OC)c3)cc2)cc1` [Polymerizable liquid crystal compound 5], for which, in data set [1] (setting [6]), the “Liquid crystallinity temperature range” value is 155 °C or more. This compound yielded a Δn in data set [2] of 0.116. Also, the Cholesteric phase entry in data set [3] was “Formed”.
For `C=CC(=O)OCCCCOc1ccc(C(=O)Oc2ccc(C=NN=Cc3ccc(OC(=O)c4ccc(OCCCCOC(=O)C=C)cc4)c(OCC)c3)cc2)cc1` [Polymerizable liquid crystal compound 6], in that order: 170 °C or more, 0.202 and “Formed”.
Regarding `C=CC(=O)OCCCCCCOc1ccc(C(=O)Oc2ccc(C=NN=Cc3ccc(OC(=O)c4ccc(OCCCCCCOC(=O)C=C)cc4)c(C(=O)OCCOC(=O)C=C)c3)cc2)cc1` [Polymerizable liquid crystal compound 7], the “Liquid crystallinity temperature range” value in data set [1] (setting [6]) was 125 °C or more. This compound also gave a Δn in data set [2] of 0.187. Further, the Cholesteric phase entry in data set [3] was “Formed”.
Consider `C=CC(=O)OCCCCCCOc1ccc(C(=O)Oc2ccc(C=NN=Cc3ccc(OC(=O)c4ccc(OCCCCCCOC(=O)C=C)cc4)c(OCC)c3)cc2OCC)cc1` [Polymerizable liquid crystal compound 8], for which the “Liquid crystallinity temperature range” value in data set [1] (setting [6]) is 150 °C or more. In addition, the Δn in data set [2] turned out to be 0.200. In data set [3], the Cholesteric phase entry is “Formed”.
For `C=CC(=O)OCCCCCCOc1ccc(C(=O)Oc2ccc(C=NN=Cc3ccc(OC(=O)c4ccc(OCCCCCCOC(=O)C=C)cc4)c(C(=O)OC)c3)cc2C(=O)OC)cc1` [Polymerizable liquid crystal compound 10], in that order: 130 °C or more, 0.191 and “Formed”.
With `C=CC(=O)OCCCCOC(=O)Oc1ccc(C(=O)Oc2ccc(OC(=O)c3ccc(OC(=O)OCCCCOC(=O)C=C)cc3)c(C)c2)cc1` [Polymerizable liquid crystal compound 12, reference compound], in data set [1] (summary of Table 1), the “Liquid crystallinity temperature range” value is “narrow temperature range”.
On to `C=CC(=O)OCCCCOC(=O)Oc1ccc(C(=O)Oc2ccc(OC(=O)c3ccc(OC(=O)OCCCCOC(=O)C=C)cc3)c(C)c2)cc1` [compound 12], for which the “Liquid crystallinity temperature range” value in data set [1] (setting [6]) stood at 63 °C. Besides, the Δn in data set [2] is recorded as 0.100. In addition, the Mutual solubility entry in data set [4] is reported as “Good”. The Solubility entry in data set [5] was “Good”. Also, in data set [3], the Cholesteric phase result is on record as “Formed”.
